Reference: publication PMC11881160 (International Journal of Nanomedicine, 2025)
Marks after values point to notes of the source that are not given here.

Tests used:
[1] = PBPK model input; ATV value marked (acid); ref Drugbank; cited from earlier work
[2] = In vitro dissolution test; assay type: physicochemical; conditions: 100 rpm, n=3
[3] = system: CYP450s of Rat Liver Microsomes (RLMs); experiment: In vitro CYP450 metabolism of ATV and inhibition by LUT in rat liver microsomes; conditions: CYP450s mixture of RLMs, Lineweaver-Burk plots
[4] = Pharmacokinetic study of LUT and LUT-NS-LP in rats; assay type: in vivo, Sprague-Dawley (SD) rats
[5] = stated in the discussion without reference; species not given; cited from earlier work
[6] = male, Sprague-Dawley, rat, plasma, po, 200 mg/kg

Drug release ([2]; pH 1.2 buffer containing 0.05% Tween 80, after 120 min, 37°C): 36.58 ± 0.99%
Drug release ([2]; pH 6.8 phosphate buffer containing 0.05% Tween 80, 37°C): 59.10 ± 3.13%
Form of inhibition of ATV metabolism by LUT [3]: non-competitive
AUC(0-inf) [4, 6]: 4230 ± 1510 ng·h/mL
AUC(0-t) [4, 6]: 3840 ± 1390 ng·h/mL
CL/F [4, 6]: 880 mL/min/kg
Cmax [4, 6]: 1140 ± 320 ng/mL
MRT inf [4, 6]: 4.02 ± 1.68 h
MRT last [4, 6]: 2.88 ± 0.96 h
Tmax [4, 6]: 0.92 ± 0.59 h
Vd/F [4, 6]: 178 ± 85.1 L/kg
half-life [4, 6]: 2.6 ± 1.52 h
F (bioavailability) ([4]; relative to LUT, rats, oral 200 mg/kg): 1 fold
Compound: O=c1cc(-c2ccc(O)c(O)c2)oc2cc(O)cc(O)c12 [LUT, Luteolin]
pKa [1]: 6.57^a
Oral absolute bioavailability [5]: under 5%
